Where a SMILES comes first, the peptide text is derived from it.
Tests used:
[1] = test system: S. aureus ATCC 6538; format: cell-based, Staphylococcus aureus
Description: (§1) S. aureus ATCC 6538 and C. albicans ATCC 10231 were obtained from Oxoid (Basingstoke, UK), and P. aeruginosa PAO1 donated by the University of Nottingham. Bacteria were routinely grown using Mueller–Hinton broth or agar and yeast was grown using Sabaraud Dextrose broth or agar. Cultures were incubated aerobically on agar at 37 °C for 20 h or under the same conditions in broth with shaking at 200 rpm.
(§2) Planktonic cultures were obtained by inoculating single colonies from 18–20 h old agar cultures into 10 ml of sterile broth, followed by 20-h incubation. S. aureus and P. aeruginosa assays were performed using Mueller–Hinton broth and agar and C. albicans assays were performed using Sabaraud Dextrose broth and agar. […]
(§3) Peptide stock solutions of 800 µM were prepared by dissolving solid peptides (provided in pre-weighed aliquots by the supplier) in phosphate buffer solution (PBS) containing 5% (v/v) DMSO. […] Each polystyrene plate was then aerobically incubated at 37 °C for 18–20 h without shaking, before measuring OD600 using a spectrophotometer plate reader (Nanostar; BMG Labtech, Ayelsbury). […] The mean IC50 for each peptide was calculated from the results of four independent experiments, with a single technical replicate each. Specific activity was calculated by plotting IC50 (µM) multiplied by peptide length, against peptide length. […]

[2] = test system: P. aeruginosa; conditions: read-out: minimum IC50; cited from earlier work
Text: (§4) A second general conclusion is that overall activity increases consistently with length. […] We previously reported variable activity in a group of cationic and hydrophobic AMPs based on apoE-derived AMPs, and a range of similar peptides we tested.

[3] = Transmission electron microscopy of peptide aggregates; format: physicochemical; conditions: single independent experiment
Description: Peptides were prepared at 800 µM in PBS with 5% v/v DMSO, and any excessively large aggregates or dust removed by centrifugation (2000 × g, 5 min). Further dilutions (80 µM) were prepared in PBS with 5% v/v DMSO, and the latter diluent was also used to prepare control (peptide-free) grids. Carbon film 200 mesh copper transmission electron microscope (TEM) grids (Agar Scientific Ltd. Stanstead, UK) were initially functionalized using a glow discharger (K100X; Quorum technologies Ltd. Laughton, UK) under a current of 25 mA for 30 sec. These were then placed onto 10 µl droplets of each test sample solution for 1 min, and then transferred onto 10 µl droplets of 1% w/v uranyl acetate for a further minute. Excess solution was removed using filter paper and sample grids were air dried for at least 1 h. Grids were imaged using a Tecnai™ T12 BioTwin TEM (FEI Company. Hillsboro, USA). Images were cropped and scale bars were added using ImageJ. Images are representative of single independent experiments.

[4] = test system: P. aeruginosa; assay: Scanning electron microscopy of peptide-treated bacteria; format: cell-based, Pseudomonas aeruginosa; conditions: 1 h, 37 °C, ~10^7 CFU/ml in PBS, three independent experiments
[5] = test system: S. aureus; conditions: read-out: minimum IC50; cited from earlier work
Text: as §4

[6] = test system: P. aeruginosa PAO1; assay: Antimicrobial assay (IC50 and MBC), broth microdilution; format: cell-based, Pseudomonas aeruginosa; conditions: Fig. 1a; range assayed 0.8-400 µM; b35 words are general, printed in the P. aeruginosa morphology study
Description: as §1, §2, §3

[7] = test system: P. aeruginosa; assay: Atomic force microscopy of peptide-treated bacteria; format: cell-based, Pseudomonas aeruginosa; conditions: 100 µM peptide, 2 min exposure, 37 °C; n = 6 cells
Description: A suspension of P. aeruginosa at ~10^7 CFU/ml in PBS was prepared as for SEM; 500 μl of this suspension was incubated with 500 μl of […] peptide (200 μM in PBS; 5% v/v DMSO) at 37 °C with shaking at 200 rpm for 45 min. As a negative control, 500 μl bacterial suspension was incubated with PBS containing 5% v/v DMSO. Samples of 50 μl were withdrawn from the suspensions at 2, 15 and 45 min for imaging by AFM. Chips were prepared by adsorbing 50 μl of poly-L-lysine onto a cleaved mica chip for 3 min. Excess poly-L-lysine was washed off by adding 10 × 200 μl aliquots of MilliQ water and excess water was removed using filter paper. Test samples were deposited onto the chips and left to adhere for 1-2 min, before further washing using 10 × 200 μl aliquots of MilliQ water, blotting off excess with filter paper, before leaving chips to air-dry overnight. Chips were scanned using a Bruker multimode 8 (Bruker, Billerica, USA) in ScanAsyst air mode. All images were taken at a resolution of 512 points per dimension unless stated otherwise, and are representative of single technical experiments. Images obtained were processed and different length measurements were performed using Gwyddion version 2.48 (http://gwyddion.net/). Measurements were taken of the long axis length, short axis length and maximum vertical height of the bacterium above the chip surface. […]

WWWRRRR [library heptapeptide of W and R; C-terminal amidation and N-terminal acetylation carried out for all peptides]
increase of IC50 relative to WWWRRRW ([1]; one residue changed, organism not given): 65 fold

WRKWRKRWWWRKWRKRWW [ApoEdpL-W, 18mer apoE-derived antimicrobial peptide composed of W, R and K, from the authors' earlier work]
IC50 [2]: 7 µM

WRWWWWW [library heptapeptide forming substantial aggregates at 800 µM; C-terminal amidation and N-terminal acetylation]
visible aggregates by TEM ([3]; 80 µM in PBS with 5% v/v DMSO): not | visible aggregates by TEM ([3]; 800 µM in PBS with 5% v/v DMSO): Substantial visible aggregates were present

RWWRWWR [C-terminal amidation and N-terminal acetylation]
bacterial morphology by SEM ([4]; 80 µM peptide): formation of spheroid objects on the surface of the bacteria, indicative of membrane blebbing | bacterial morphology by SEM ([4]; 400 µM peptide): dramatic reduction in the number of intact bacteria | IC50 [5]: 14 µM | inhibitory activity (in words) [6]: one of the most active | bacterial height by AFM [7]: doubled | mean bacterial width by AFM [7]: decreased by a third

RRWYRWWR [Y-containing octapeptide similar to RWWRWWR, from the authors' earlier work]
IC50 [2]: 21 µM

RRRRRRR [C-terminal amidation and N-terminal acetylation carried out for all peptides]
bacterial morphology by SEM ([4]; 80 µM peptide): no discernible change in morphology | bacterial morphology by SEM ([4]; 400 µM peptide): no discernible change in morphology | inhibitory activity (in words) [6]: inactive

CC(=O)N[C@@H](Cc1c[nH]c2ccccc12)C(=O)N[C@@H](Cc1c[nH]c2ccccc12)C(=O)N[C@@H](Cc1c[nH]c2ccccc12)C(=O)N[C@@H](CCCNC(=N)N)C(=O)N[C@@H](CCCNC(=N)N)C(=O)N[C@@H](CCCNC(=N)N)C(=O)N[C@@H](Cc1c[nH]c2ccccc12)C(N)=O [WWWRRRW] (Ac-WWWRRRW-NH2)
IC50 ([1]; ATCC 6538): 2900 ± 300 nM
